According to US20110060045A1, “ANTI-DIABETIC CATARACT COMPOUNDS AND THEIR USES” (NATIONAL RESEARCH COUNCIL OF CANADA, priority 2006, published 2011):
Where “and” joins values, the source holds several entries; their conditions need not be identical. Equal values may be shown once. Read-outs that look alike come from different tables or passages of the source.

What was measured:
[1] = tested on: dog; settings: intravenous injection, compared with (R,S)-isoproterenol; cited from earlier work
[2] = molecular target: T1, bovine serum albumin (BSA) with D-ribose (Bos taurus, UniProt P02769); assay: Maillard fluorescence-based anti-glycation assay; settings: in vitro anti-glycation; for IC50: BSA 0.075 mM, D-ribose 50 mM, 37° C., 5 days; for Imax: maximum inhibition of Maillard fluorescence
T1 sequence (P02769 25-607): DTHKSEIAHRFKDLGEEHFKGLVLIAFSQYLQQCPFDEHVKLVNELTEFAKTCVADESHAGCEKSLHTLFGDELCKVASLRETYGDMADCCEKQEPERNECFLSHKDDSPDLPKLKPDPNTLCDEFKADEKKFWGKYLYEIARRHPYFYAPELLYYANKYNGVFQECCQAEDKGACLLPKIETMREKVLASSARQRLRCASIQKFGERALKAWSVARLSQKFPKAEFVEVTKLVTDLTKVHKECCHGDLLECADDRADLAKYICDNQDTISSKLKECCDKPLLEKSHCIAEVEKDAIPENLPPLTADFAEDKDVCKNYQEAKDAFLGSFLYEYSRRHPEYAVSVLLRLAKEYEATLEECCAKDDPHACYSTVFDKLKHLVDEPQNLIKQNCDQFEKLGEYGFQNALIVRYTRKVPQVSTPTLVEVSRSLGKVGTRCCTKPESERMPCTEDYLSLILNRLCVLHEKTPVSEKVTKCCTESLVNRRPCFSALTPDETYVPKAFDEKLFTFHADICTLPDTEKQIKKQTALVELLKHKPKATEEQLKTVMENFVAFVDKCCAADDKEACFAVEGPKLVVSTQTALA
Description: (§3) The Maillard fluorescence-based assay was used to screen anti-glycation activity of approximately 1,300 drugs or drug candidates. […] Briefly the assay involved incubation of bovine serum albumin (BSA) (0.075 mM) with D-ribose (50 mM) and an assay compound (0.47, 4.7 and 47 μg/mL). Solutions were incubated at 37° C. for 5 days.

[3] = tested on: human eye; settings: cited from earlier work
[4] = better than epinephrine; cited from earlier work
[5] = molecular target: T1, bovine serum albumin (BSA) with D-ribose; assay: biochemical
Description: as §3

[6] = Body weight of non-diabetic and diabetic rats; format: in vivo, rat
Description: (§1) Eye drops or vehicle were administered twice a day, seven days a week, on the cornea of different groups of rats, with a minimum interval of 7 h between the two treatments. To promote weight gain and limit hyperglycemia, diabetic rats were injected sub-cutaneously with 2 IU ultralente insulin (Humulin, Eli Lilly, Toronto, ON, Canada) three times a week. Animal weights were monitored every week.

[7] = tested on: PC12 cells; assay: Anti-oxidant activity against oxidative stress by H2O2 at the cellular level; format: cell-based; settings: 10-100 μM; H2O2 killed over 80% of the PC12 cells
From the text: Glycation includes oxidative processes and is closely related to oxidative stress. […] The oxidative stress by H2O2 induces apoptosis in vitro and in vivo, and effective anti-oxidants such as N-acetyl-cysteine reduces the oxidative stress and protects the cells from the apoptosis.

[8] = tested on: human eyes; settings: cited from earlier work
[9] = large intravenous dose; cited from earlier work
[10] = tested on: PC12 cells; assay: Cytotoxicity in PC12 cells (MTT assay); format: cell-based
Description: The cytotoxicity of (S)-isoproterenol dipivalate was measured by using PC12 cells. […] PC12 cells were seeded onto rat-tail collagen coated 96-well plates at a density of 2×10^4 cells/well and cultivated for one day. On the day of the experiment, dilutions of (S)-isoproterenol dipivalate ranging from 100 μM to 10 mM were prepared in complete medium. […] At the end of the incubation times, the medium was aspirated and 100 μL of a solution of MTT (3-(4,5-dimethylthiazol-2-yl)-2,5-diphenyltetrazolium; 0.2 mg/ml in complete medium) was added to the cells. After incubation at 37° C. for 2 hours, MTT was removed and the colored formazan was dissolved in dimethyl sulfoxide (DMSO) (½ hour at 37° C.). Reduction was measured by colorimetric detection (595 nm) of the blue insoluble formazan product. This assay provides an estimate of the number of functioning mitochondria present in the cells; i.e. the quantity of formazan product is directly proportional to the number of metabolically active cells in the culture. The viability of PC12 cells in each well was presented as percentage of control cells.

[11] = Storage stability of the eye drop (HPLC profiles); format: physicochemical; settings: eye drop pH 5.5, one month of storage at 4° C.
Description: (§2) The pH of the eye drop was adjusted to 5.5 with 1N—HCl. […] The eye drop was freshly prepared every month and was stored at 4° C. […] The size of each eye drop was 50 μL.

[12] = tested on: Streptozotocin-injected diabetic rats; assay: Diabetic cataract initiation and progression in Streptozotocin-injected rats, eye drops; format: in vivo, rat; settings: for Time entered in level 4 / Time stayed in level 0 / Time stayed in level 1 / Time stayed in level 2 / Time stayed in level 3: individual diabetic rats with drug; for Time entered in level 4 / Time stayed in level 0 / Time stayed in level 1 / Time stayed in level 2 / Time stayed in level 3 / Time stayed in level 0 (cataract initiation), Av ± STD / Time stayed in level 1, Av ± STD / Time stayed in level 2, Av ± STD / Time stayed in level 3, Av ± STD: hydrochloride; for Time stayed in level 0 (cataract initiation), Av ± STD / Time stayed in level 1, Av ± STD / Time stayed in level 2, Av ± STD / Time stayed in level 3, Av ± STD: diabetic rats with drug, n=17, both eyes; for Time stayed in level 0 (cataract initiation), Av ± STD: 0.10% eye drop twice a day
From the text: A rat model was used to study the effect of (S)-isoproterenol on diabetic cataract, that of streptozotocin-injection to induce diabetes by destroying the β-cells of the pancreas. This model has been widely used to study diabetes-related pathological events and their possible treatments (Dagher et al., 2004; Ben-nun et al., 2004; Chung et al., 2005). The rat model has an advantage of rapid formation of diabetic cataract such that initial cataract was observed as early as 8-9 weeks in the majority of the control diabetic rats. Two-month-old male Sprague-Dawley rats were purchased from Charles River, Canada. They were housed in the Biotechnology Research Institute (BRI)—animal facility. Housing and all experimental manipulations were approved by the BRI Animal Care Committee that functions under the guidelines of the Canadian Council of Animal Care.
as §2
Diabetes was induced in male Sprague-Dawley rats weighing approximately 200 to 250 g by a single intraperitoneal injection of the beta-cell toxin, Streptozotocin (STZ) (Sigma, St. Louis, […].), at a dose of 60 mg/kg body weight in 0.1M citrate buffer pH 4.5. Non-diabetic control rats received citrate buffer only.
as §1
Cataract progression was monitored by visual examination, twice a week. A scoring system was devised to evaluate the severity of the cataract. A healthy eye was given a score of 0 (normal level); when a faint pinkish hue was discernable (level 1), cataract formation was in its earliest stage of being visually detected and this stage was given a score of 1. When a white film is clearly detectable (level 2), a score of 2 was assigned. When the film covers the entire eye, but the pupils are still visible (level 3), a score of 3 was assigned, and finally the cataract was considered most severe (score of 4) when the pupil was not detected due to the formation of the white film (level 4).

[13] = tested on: human corneal epithelial cells (HCEC cells); settings: human cornea epithelial cells, under the microscope
Description: HCEC cells were grown in EpiLife medium supplemented with human corneal growth supplements (HCGS; Cascade Biologics). The cells were maintained at 37° C. in a humidified atmosphere containing 5% CO2 and the medium was changed every other day. HCEC cells were seeded onto 96-well plates at a density of approximately 10^3 cells/well and cultivated for one day. […] The medium was aspirated and the treatments were applied to the cells (in triplicates) for different incubation times (5 minutes to 2 hours and 24 hours). At the end of the incubation times, the survival of the cells was visually examined under microscope.

[14] = pKa of the aromatic dihydroxyl group; format: physicochemical
[15] = 2.47% instilled to normal human eyes (Bonomi 1964)

With CC(C)NCC(O)c1ccc(OC(=O)C(C)(C)C)c(OC(=O)C(C)(C)C)c1 (racemic) as the molecule, how does the cardiovascular effect [1] read?
Its cardiovascular effect is “did not produce any unique cardiovascular effect”.

What does the source list for CNCC(O)c1ccc(O)c(O)c1 (racemic) [(R,S)-Epinephrine]?
IC50 [2]: 17 ± 1.1 µM; Imax [2]: 82%

With CC(C)NCC(O)c1ccc(O)c(O)c1 (racemic) [(R,S)-isoproterenol] as the molecule, how does the “duration of reduction in ocular tension” value [3, 15] read?
Its value is “at least 12 h”.

What about the “reduction in ocular tension” value [3, 15] of the same molecule?
The value was 20%.

Which “enhancement of ocular absorption” value [4] does the source give for CNCC(O)c1ccc(OC(=O)C(C)(C)C)c(OC(=O)C(C)(C)C)c1 (racemic) [Dipivefrin, (R,S)-epinephrine dipivalate] here?
The value was 17 time.

Which results are given for CC(C)NC[C@H](O)c1ccc(O)c(O)c1 [(R)-Isoproterenol]?
Imax [2]: 86%; IC50 [5]: 18.1 ± 1.1 µM

With NC[C@H](O)c1ccc(O)c(O)c1 [(R)-Norepinephrine] as the molecule, how does the IC50 [2] read?
Its IC50 is 39.6 ± 3.4 µM.

And the Imax [2]?
Its Imax is 92%.

With CC(C)NC[C@@H](O)c1ccc(O)c(O)c1.O=C(O)C(O)C(O)C(=O)O [(S)-Isoproterenol, (S)-isoproterenol bitartrate] as the molecule, how does the IC50 [2] read?
The IC50 was 16.8 ± 0.8 µM.

And the Imax [2]?
Its Imax is 81%.

What about the “effect on weight gain/loss” value ([6]; diabetic rats, Group IV vs Group III) of the same molecule?
Its value is “no effect”.

What about the “effect on weight gain/loss” value ([6]; non-diabetic rats, Group II vs Group I) of the same molecule?
Its value is “no effect”.

And the “protective effect against H2O2 oxidative stress” value [7]?
Its value is “did not show any protective effect”.

And the ocular adverse effects ([8]; eye drop, 10%, human eyes)?
Its ocular adverse effects is “only brief mild conjunctival hyperemia and irritation”.

What about the “effect on blood glucose level and diabetes” value (Groups I vs II and III vs IV) of the same molecule?
Its value is “does not affect the blood glucose level”.

What about the “effects on blood pressure and pulse rate” value [9] of the same molecule?
Its value is “only slight and transient effects on blood pressure and pulse rate”.

Which results are given for NC[C@@H](O)c1ccc(O)c(O)c1 [(S)-Norepinephrine]?
IC50 [2]: 40.3 ± 4.7 µM; Imax [2]: 93%

What does the source list for CC(C)NC[C@@H](O)c1ccc(O)c(O)c1.Cl [(S)-isoproterenol HCl, (S)-isoproterenol hydrochloride]?
effect on intra-ocular pressure ([3]; topical administration of up to 20%, human eye): did not show any indication to lower intra-ocular pressure; ocular adverse effects ([8]; topical administration of 20%, persisted for several hours): marked conjunctival hyperemia and mild miosis

With CC(C)NC[C@@H](O)c1ccc(OC(=O)C(C)(C)C)c(OC(=O)C(C)(C)C)c1.Cl [(S)-isoproterenol dipivalate, (S)-isoproterenol dipivalate hydrochloride] as the molecule, how does the “tolerance of PC12 cells” value ([10]; longer incubation up to 24 h, minimum media (data not shown)) read?
Its value is 500 µM.

What about the “concentration PC12 cells were tolerant to” value ([10]; short incubation up to 2 hr) of the same molecule?
The value was “up to 500 μM”.

What about the degradation on storage [11] of the same molecule?
Its degradation on storage is “No degradation”.

What about the “protective effect against H2O2 oxidative stress” value [7] of the same molecule?
The value was “did not show any protective effect”.

What about the “Time entered in level 4” value ([12]; Left eye) of the same molecule?
Its value is 14.5 week and 19.5 week and 19 week (2×) and 16 week and 18.5 week and 20.5 week (2×) and 8 week and 22 week.

And the “Time stayed in level 0” value ([12]; Left eye)?
Its value is 8 week (6×) and 9 week (3×) and 14 week and 18 week and >30 week (4×) and >23 week and 12 week.

And the “Time stayed in level 1” value ([12]; Left eye)?
The value was 1 week (4×) and 2.5 week and 2 week (3×) and 0.5 week (2×) and 3 week (2×).

What about the “Time stayed in level 2” value ([12]; Left eye) of the same molecule?
Its value is 2 week (5×) and 1 week and 1.5 week (2×) and 0.5 week (2×) and 2.5 week and 5 week.

What about the “Time stayed in level 3” value ([12]; Left eye) of the same molecule?
The value was 2.5 week and 7.5 week and 5.5 week and 3 week and 3.5 week and 7 week and 8 week and 4 week and 5 week and 6.5 week.

What about the “Time entered in level 4” value ([12]; Right eye) of the same molecule?
The value was 14.5 week and 19.5 week and 19 week (3×) and 15.5 week and 20.5 week (2×) and 8 week and 22 week.

And the “Time stayed in level 0” value ([12]; Right eye)?
The value was 8 week (7×) and 13 week and 18.5 week (2×) and 17 week and >30 week (2×) and 18 week and 14 week and 11.5 week and 12 week.

And the “Time stayed in level 1” value ([12]; Right eye)?
The value was 1 week (7×) and 0.5 week (5×) and 2.5 week and 2 week and 0 week.

And the “Time stayed in level 2” value ([12]; Right eye)?
Its value is 2 week (7×) and 0.5 week (2×) and 1.5 week and 1 week (2×) and 5 week and 2.5 week (2×).

And the “Time stayed in level 3” value ([12]; Right eye)?
Its value is 2.5 week and 7.5 week and 7 week (2×) and 4 week (2×) and 3 week and 8 week and 6.5 week (2×).

And the “Time stayed in level 0 (cataract initiation), Av ± STD” value [12]?
The value was 15.0±8.3 week.

And the “Time stayed in level 0 (cataract initiation), Av ± STD” value ([12]; listed as drug)?
The value was over 15.0 ± 8.3 week.

And the “Time stayed in level 1, Av ± STD” value [12]?
Its value is 1.24 ± 0.82 week.

What about the “Time stayed in level 2, Av ± STD” value [12] of the same molecule?
The value was 1.88 ± 1.09 week.

What about the “Time stayed in level 3, Av ± STD” value [12] of the same molecule?
Its value is 5.4 ± 1.9 week.

And the “Time stayed in level 1, Av ± STD” value ([12]; listed as prodrug)?
Its value is 1.24±0.82 week.

What about the “Time stayed in level 2, Av ± STD” value ([12]; listed as prodrug) of the same molecule?
The value was 1.88±1.09 week.

What about the “Time stayed in level 3, Av ± STD” value ([12]; listed as prodrug) of the same molecule?
The value was 5.4±1.9 week.

And the “percentage of eyes initiating cataract” value ([12]; eyes initiating at 8.6±1.2 weeks)?
The value was 53%.

What about the “percentage of eyes initiating cataract” value ([12]; eyes initiating at 17.1±3.1 weeks) of the same molecule?
Its value is 26%.

What about the “percentage of eyes initiating cataract” value ([12]; eyes initiating at >30 weeks (except one eye >23 weeks)) of the same molecule?
The value was 21%.

And the “time of cataract initiation” value ([12]; first subgroup, 53% of the eyes)?
The value was 8.6±1.2 weeks.

And the “time of cataract initiation” value ([12]; second subgroup, 26% of the eyes)?
The value was 17.1±3.1 weeks.

What about the “time of cataract initiation” value ([12]; third subgroup, 21% of the eyes) of the same molecule?
Its value is over 30 weeks.

What about the blood glucose level (Group II, non-diabetic rats receiving prodrug, 27 week period) of the same molecule?
The blood glucose level was 5.1 ± 0.4 mM.

And the blood glucose level (Group IV, diabetic rats receiving prodrug, stabilized level)?
The blood glucose level was 27 ± 5 mM.

What about the “concentration with no visibly noticed cytotoxicity” value [13] of the same molecule?
The value was “up to 25 mM”.

Which pKa [14] does the source give for CC(C)NCC(O)c1ccc(O)c(O)c1 (centres unmarked) [isoproterenol] here?
The pKa was 8.72 ± 0.05.

Which results are given for (R)-Epinephrine?
IC50 [2]: 15.5 ± 1.7 µM; Imax [2]: 83%
